Converted amounts (≈) assume the structure as drawn. Read-outs that look alike come from different tables or passages of the source. Bounds are passed on as bounds.

The Kd is the concentration at which binding is half-saturated. Higher therefore signals weaker binding.

The target in series [1] is HUSpm (Spiroplasma melliferum, UniProt A0ABX5UAT3). Briefly: biochemical. It counts as binding. On the procedure: In silico screening by molecular docking and filtering was performed to identify compounds interacting with the core region of the DNA-binding saddle-like domain of HU proteins (Fig. 1A) previously characterized in[35]. High-resolution spatial structure of HUSpm (PDB ID 5L8Z[9]) was chosen as a target for virtual screening of one million compounds from the Vitas-M laboratory library collection (https://vitasmlab.biz/). The screening (see "Methods" for a description) identified a set of five compounds (Supplementary Table S1), further evaluation of which was carried out by an electromobility shift assay (EMSA) performed as described in[5]. In the assay, formation of DNA–protein complexes retards migration of dye-labeled DNA-duplexes during non-denaturing PAGE that gives a shifted fluorescent band. The presence of an inhibitor prevents complex formation and corresponding band shifting.
All oligonucleotides were synthesized by Evrogen (Moscow, Russia).
For 48 bp DNA duplexes, 8% PAAG was used.

The target in series [2] is HUSpm_K35T (Spiroplasma melliferum, UniProt A0ABX5UAT3, K35T).
Description: Thus, previously obtained HUSpm mutants (F14A, F29A, F31A and K35T) were employed for inhibitor evaluation.
(§3) Binding of HU proteins to DNA was analyzed by electrophoretic mobility shift assays (EMSA) performed as described previously[5]. Different amounts of the HU proteins (30 nM HUSpm and HUSpm_K35T, 60 nM HUMgal and HUEc, 100 nM HUSpm_K80A and HUSpm_K88A, and 200 mM HUSpm_R57A) were incubated with DNA (10 nM) in 10 μl of the binding buffer (20 mM Tris–HCl pH 8.0, 7% glycerol, and 150 mM of NaCl) for 10 min. Then, the samples were loaded to pre-runned (125 V, 30 min) 10% non-denaturing PAAG, buffered with 100 mM Tris–borate, and electrophoretically separated (125 V, 90 min). […] Gels were visualized using BIO RAD Faros FX Molecular Imager (532 nm EX, 605 nm BP), and quantification was performed using Quantity One software. The dissociation constants (Kd) were calculated as described earlier[16].
(§4) To evaluate the effects of inhibitors, 1 μl volumes of serial dilutions of tested compounds or DMSO were added to the preformed protein-DNA complexes. After five minute incubation, the assay was carried out as described above. Inhibition curves and IC50 values were obtained using GraphPad Prism 5 software.
Series [3] is described as follows: Solubility (stated in words). The class given is physicochemical. The note with it: water.
Series [4] deals with HUSpm_K88A (Spiroplasma melliferum, UniProt A0ABX5UAT3, K88A). The settings on record: read-out: IC50 against HUSpm mutant HUSpm_R88A (so in the source); EMSA with DS24a; mean ± SD from three runs; 100 nM protein. On the technique in general: In EMSA bound probe runs differently from free probe, usually more slowly.
Description: as §3, §4
The target of series [5] is HUSpm_R57A (Spiroplasma melliferum, UniProt A0ABX5UAT3, R57A). The settings on record: read-out: IC50 against HUSpm mutant HUSpm_R57A; EMSA with DS24a; mean ± SD from three runs; 200 mM HUSpm_R57A as printed.
Description: as §3, §4
Series [6] has as its system M. gallisepticum S6. Nature of the series: Broth micro-dilution test, MIC. The note with it: M. gallisepticum growth in culture, phenol red colour change, three determinations. The class given is cell-based, Mycoplasma gallisepticum. From the text:
(§1) Since HU proteins are known to be essential for mycoplasma cell viability, [32], we assessed the effects of the inhibitors on M. gallisepticum and S. melliferum growth in culture. […] The growth of metabolizing organisms causes a change in the pH of the medium leading to a visible color change due to the presence of phenol red in the medium. When the growth of bacteria is inhibited, color change is not observed. The MIC is the lowest inhibitor concentration that prevents the color change at the time when the color change has developed in control (untreated) samples.
(§2) The S. melliferum KC3 strain was kindly provided by Prof. G. Wroblewsky of the University of Rennes, France. The M. gallisepticum S6 strain was provided by Prof. S. N. Borkhsenius, Institute of Cytology, St. Petersburg, Russian Academy of Science. The bacteria were cultivated as described in[62] without any specific aeration in covered flasks, for less than five passage. M. gallisepticum S6 was cultivated in a modified Edward’s liquid medium (tryptose (20 g/l), Tris (3 g/l), NaCl (5 g/l), KCl (1.3 g/l), yeast dialysate (5%), heat inactivated (56 °C–30 min) horse serum (6%), glucose (0.5%) and penicillin 300U/ml, pH 7.5) at 37 °C for 20 h after 1:100 dilution. […]
(In general: In broth dilution the organism is exposed to a series of concentrations in liquid medium.)

The subject of series [7] is HUSpm mutants (F14A, F29A, F31A). Briefly: EMSA, inhibitor evaluation on HUSpm mutants F14A, F29A, F31A. The note with it: data not shown. The class given is binding, Spiroplasma melliferum.
Series [8] has as its target HUSpm_K80A (Spiroplasma melliferum, UniProt A0ABX5UAT3, K80A). The note with it: read-out: IC50 against HUSpm mutant HUSpm_K80A; EMSA with DS24a; mean ± SD from three runs; 100 nM protein.
Description: as §3, §4
Series [9] deals with S. melliferum KC3. Briefly: Broth micro-dilution test, MIC. The class given is cell-based, Spiroplasma melliferum. The note with it: S. melliferum growth in culture, phenol red colour change, three determinations.
Description: as §1, §2

Series [10] concerns the target HUMgal (Mycoplasmoides gallisepticum, UniProt A0A0F6CKR5). Briefly: EMSA, inhibition of HUMgal DNA binding. Details: species or system Mycoplasma gallisepticum.
Description: (§5) One protein was from mycoplasma M. gallisepticum (HUMgal) and another was HUα-homodimer from E. coli (HUEc). […] To assess the effect of the three BDFs on DNA binding properties of the three HU proteins, increasing concentrations of inhibitors were mixed with preset DNA–protein complexes and EMSA was performed and quantified as described in the Methods.
(§6) Binding of HU proteins to DNA was analyzed by electrophoretic mobility shift assays (EMSA) performed as described previously[5]. Different amounts of the HU proteins (30 nM HUSpm and HUSpm_K35T, 60 nM HUMgal and HUEc, 100 nM HUSpm_K80A and HUSpm_K88A, and 200 mM HUSpm_R57A) were incubated with DNA (10 nM) in 10 μl of the binding buffer (20 mM Tris–HCl pH 8.0, 7% glycerol, and 150 mM of NaCl) for 10 min. Then, the samples were loaded to pre-runned (125 V, 30 min) 10% non-denaturing PAAG, buffered with 100 mM Tris–borate, and electrophoretically separated (125 V, 90 min). […] Gels were visualized using BIO RAD Faros FX Molecular Imager (532 nm EX, 605 nm BP), and quantification was performed using Quantity One software.
as §4
In series [11] the test system is HUSpm (Spiroplasma melliferum), PDB:5L8Z_1. Nature of the series: EMSA. The settings on record: EMSA: 20 mM Tris-HCl pH 8.0, 150 mM NaCl, 7% glycerol, 10 nM DNA, 10 min, temperature not stated; NMR: 50 mM sodium phosphate pH 7.2, 0.1 mM NaN3, 30 C.
The target in series [12] is T1, HUEc (HUα-homodimer from E. coli) (Escherichia coli, UniProt P0ACF0).
T1 construct: made in house
T1 sequence (P0ACF0 whole entry): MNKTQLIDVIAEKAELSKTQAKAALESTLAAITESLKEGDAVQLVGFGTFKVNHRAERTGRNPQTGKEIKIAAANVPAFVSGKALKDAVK
Nature of the series: biochemical. The class given is binding.
Description: as §5, §6, §4

Where [13] appears, read: EMSA with DS24a, average ± SD from three runs, read-out: IC50, inhibition of HUMgal DNA-binding.
Setting [14] is: EMSA with DS48 duplex, average±SD, n=3, read-out: IC50, half-maximal inhibitory concentration of HUSpm-DNA complex formation.
Setting [15] is: EMSA with DS24a duplex, average±SD from three runs, read-out: IC50, half-maximal inhibitory concentration of HUSpm-DNA complex formation.

Chain of HUMgal (A0A0F6CKR5 entry or part of it): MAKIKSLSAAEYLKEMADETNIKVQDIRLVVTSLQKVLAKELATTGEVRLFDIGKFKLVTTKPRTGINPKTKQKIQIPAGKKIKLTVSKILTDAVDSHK

`O=C(Oc1ccc(C2(c3ccc(OC(=O)c4ccc(C(=O)O)c(C(=O)O)c4)cc3)c3ccccc3-c3ccccc32)cc1)c1ccc(C(=O)O)c(C(=O)O)c1` [BDF4, 4,4'-[4,4'-(9H-fluorene-9,9-diyl)-bis(4,1-phenylene)]-bis(oxy)-bis(oxomethylene)diphthalic acid]: the IC50 in series [1] (read-out: IC50, half-maximal inhibitory concentration of HUSpm-DNA complex formation, EMSA with DS24a duplex, average±SD from three runs) stood at 5.6 ± 0.8 µM; in series [2] (read-out: IC50 against HUSpm mutant HUSpm_K35T, EMSA with DS24a, mean ± SD from three runs, 30 nM protein), 1.8 ± 0.3 µM; in [4], 6.3 ± 1.2 µM; in series [5], 6.3 ± 1 µM; in [8], 5.9 ± 0.9 µM; in [10] (setting [13]), 5 ± 0.6 µM. For the same molecule, the “Decrease of the IC50 value as compared to wild type HUSpm” value in series [2] (HUSpm_K35T vs wild type, DS24a) is given as “about threefold decrease”. In [3], the Solubility entry is listed as “water solubility”. The MIC in series [6] (Mycoplasmoides gallisepticum, S6, read-out: MIC, minimal inhibitory concentration) was in the range of 40 to 70 µM (≈ 29.4 to 51.4 µg/mL); in series [9] (Spiroplasma melliferum, KC3, read-out: MIC, minimal inhibitory concentration), 40 to 70 µM (≈ 29.4 to 51.4 µg/mL). Moreover, the “Effect of other mutations (F14A, F29A, F31A) on sensitivity to inhibitor” value in [7] is recorded as “did not cause any significant effects”.

The molecule “AGTCTAGAGTGCAGTTGAGTCCTTGCTACGACGGATCCCTTAGGTCAG / CTGACCTAAGGGATCCGTCGTAGCAAGAGACTCAACTGCACTCTAGACT [A1 bulge (A1)]” displayed a Kd in series [11] of 0.0025 µM.

In turn, “AGTCTAGAGTGCAGTTGAGTCCTTGCTACGACGGATCCCTTAGGTCAG / AAGGACTCAACTGCACTCTAGACT / CTGACCTAAGGGATCCGTCGTAG [Nick (N)]” showed a Kd in [11] of 0.0052 µM. Compared with the last molecule, the Kd is about 2.1-fold higher.

Turning to `CSCCC(NS(=O)(=O)c1ccc2c(c1)C(=O)c1cc(S(=O)(=O)NC(CCSC)C(=O)O)ccc1-2)C(=O)O` (stereo not shown) [compound 3], in series [1] (setting [14]), the IC50 was above 100 µM.

Consider `O=C(O)c1cccc(C(=O)Oc2ccc(C3(c4ccc(OC(=O)c5cccc(C(=O)O)c5)cc4)c4ccccc4-c4ccccc43)cc2)c1` [BDF6, 3.3′-[4.4′-(9H-fluorene-9.9-diyl)-bis(4.1-phenylene)]-bis(oxy)-bis(oxomethylene)-dibenzoic acid], for which the IC50 in series [1] (IC50, half-maximal inhibitory concentration of HUSpm-DNA complex formation, EMSA with DS24a duplex, average±SD from three runs) is 8.2 ± 1.1 µM; in series [1] (IC50 given in figure, HUSpm-DNA binding, DS24a, representative result of one independent assay), 8.7 µM; in [12] (IC50, inhibition of HUEc DNA-binding, EMSA with DS24a, average ± SD from three runs) it was 10 ± 1.3 µM; in [12] (IC50 given in figure, HUEc DNA binding, DS24a, representative result of one independent assay), 9.5 µM; in series [10] (DS24a, representative result of one independent assay, read-out: IC50 given in figure, HUMgal DNA binding), 8.2 µM; in [10] (setting [13]), 8.1 ± 1 µM. In addition, the Solubility entry in series [3] is given as “limited solubility”. Further, the “MIC, minimal inhibitory concentration” value in series [6] and in [9] was “worst MIC” in each case.

As to `O=C(Oc1ccc(C2(c3ccc(OC(=O)c4ccc(C(=O)O)c(C(=O)O)c4)cc3)c3ccccc3-c3ccccc32)cc1)c1ccc(C(=O)O)c(C(=O)O)c1` [BDF1], in series [1] (100 μM compound, DS48), the “Inhibition of HUSpm-DNA binding, first round of EMSA” value is “inhibits HUSpm-DNA binding”. The IC50 in [1] (setting [15]) came out at 6.2 ± 0.5 µM; in series [1] (setting [14]), 6.5 ± 0.9 µM.

In turn, “AGTCTAGAGTGCAGTTGAGTCCTTGCTACGACGGATCCCTTAGGTCAG / CTGACCTAAGGGATCCGTCGTAGCAAGAAAAAAAGACTCAACTGCACTCTAGACT [A7 bulge (A7)]” came in with a dissociation constant Kd in series [11] of 0.002 µM. That is a single-digit nanomolar value.

In [11], “AGTCTAGAGTGCAAGTTGAGTCCTT / AAGGACTCAACTGCACTCTAGACT [DS24a (24a)]” had a Kd of 0.0026 µM.

“AGTCTAGAGTGCAGTTGAGTCCTTGCTACGACGGATCCCTTAGGTCAG (double strand) [DS48 (48)]”: the Kd in series [11] was determined as 0.0186 µM.

Turning to “4,5'-[4,4'-(9H-fluorene-9,9-diyl)bis(4,1-phenylene)]-bis(oxy)-bis(oxomethylene)-bis[2-(m-tolylcarbamoyl)-benzoic acid] [BDF5]”, the IC50 in series [1] (setting [15]) worked out at 6.3 ± 0.7 µM; in series [10] (setting [13]), 5.9 ± 0.8 µM.
